Measured values from patent publication US20160090555A1, “CLEANING AND/OR TREATMENT COMPOSITIONS COMPRISING MALODOR REDUCTION COMPOSITIONS” (The Procter & Gamble Company, priority 2014, published 2016).

Legend:
[1] = Blocker Index (BI), expert graders, isovaleric acid malodorous swatch; set-up: key: Blocker Index, 0–3 scale anchored by reference swatches (0 = clean swatch)
Text: Blocker materials suitable for use in cleaning and/or treatment compositions of the present invention are chosen for their ability to decrease malodor, while not interfering with perception of a fragrance. Material selection is done by assigning two indices to a test sample material from two reference scales in order to rank odor strengths. The two reference scales are the Fragrance Fidelity Index (FFI) scale and the Blocker Index (BI) scale. The FFI ranks the ability of the test sample material to impart a perceivable odor which could cause interference when combined with another fragrance and the BI ranks the ability of the test sample material to reduce malodor perception. The two methods for assigning the indices to a test sample on the FFI and the BI reference scales are given below.
The first step in the method for assigning a BI to a test sample material on the BI reference scale is to create the BI reference swatches. […] Fabric swatches for this test are white knit polycotton (4 inch×4 inch) swatches from EMC ordered as PC 50/50. The supplier is instructed to strip the swatches first, stripping involves washing twice with a fragrance-free detergent and rinsing three times.
The BI scale contains one clean swatch with no malodor applied. […] These solutions are pipetted to the middle of the swatches. […] After drying for 30 minutes in a vented hood, the swatches are wrapped in aluminum foil to prevent odor contamination to the treated swatch. A clean untreated swatch is also included as the lowest anchor point of reference for malodor strength on the BI scale. The BI reference scale swatches should be used within 0.5 to 12 hours and discarded after 12 hours. The swatches are used as scale anchor points when graders evaluate a test sample(s) and are assigned a Blocker Index (BI) as show in Table 12.
The perfumer/expert grader is asked to rank order swatches according to a scale between 0 and 3.
The reference swatches represent the 0, 1, 2, and 3 BIs on the BI reference scale, Table 12. The expert grader should familiarizes him/herself with the strength of the odor on the BI reference swatches by sniffing each one starting at 0 (the lowest odor strength) and ending at 3 (the highest odor strength). This should be done prior to evaluating the swatch treated with the test material.
To evaluate the BI, the test material is applied to a malodorous swatch to determine how well the test material blocks the malodor. […] After drying the malodorous swatch a known concentration of test material solution, between 1 ppm and 100 ppm is pipetted onto the malodorous swatch. […] It is sometimes necessary to evaluate several levels of the test material between about 1 and about 100 ppm to determine the BI.
At least two perfumers/expert graders are used to assign the BI to the test sample. […] The test sample swatch is assigned a BI at or between numbers on the BI in table.

[2] = Fragrance Fidelity Index (FFI), expert graders, treated fabric swatch against ethyl vanillin reference scale
Text: Blocker materials suitable for use in cleaning and/or treatment compositions of the present invention are chosen for their ability to decrease malodor, while not interfering with perception of a fragrance. Material selection is done by assigning two indices to a test sample material from two reference scales in order to rank odor strengths. The two reference scales are the Fragrance Fidelity Index (FFI) scale and the Blocker Index (BI) scale. The FFI ranks the ability of the test sample material to impart a perceivable odor which could cause interference when combined with another fragrance and the BI ranks the ability of the test sample material to reduce malodor perception. The two methods for assigning the indices to a test sample on the FFI and the BI reference scales are given below. The first step in the method for assigning an FFI to the test samples on the FFI reference scale is to create the FFI reference swatches. […] Fabric swatches for this test are white knit polycotton (4 inch×4 inch) swatches from EMC ordered as PC 50/50. The supplier is instructed to strip the swatches first, stripping involves washing twice with a fragrance-free detergent and rinsing three times. […] This will create a sensory scale of three swatches with three different odor levels based on the concentration of the solution pipetted onto the swatch. […] A clean untreated swatch is also included as the lowest anchor point of reference for odor strength on the FFI scale. […] The swatches are used as scale anchor points when graders evaluate a test sample(s) and are assigned a Fragrance Fidelity Index (FFI) as show in Table 7. […] This should be done prior to evaluating the test sample material treated swatch. […] At least two perfumers/expert graders are used to assign an FFI grade to a test sample.

[3] = test material at 10 ppm on isovaleric acid malodorous swatch
[4] = test material at 50 ppm on isovaleric acid malodorous swatch

Row | Structure (SMILES) | BI [1, 3] | BI [1, 4] | FFI ([2]; Conc 10 ppm) | FFI ([2]; Conc 50 ppm) | BI ([1]; Conc 10 ppm) | BI ([1]; Conc 50 ppm) | BI grade of reference swatch, Ave ([1]; 2 μL 0.08% isovaleric acid, all graders (Table 10))
1 | CC1(C)CCc2ccc(CCC=O)cc21 | 1.5 | 2.7 |  |  |  |  | 
2 | CC1CCC2(C(C)C)CC(C)OC2C1 (centres unmarked) | 2.0 | 2.2 |  |  |  |  | 
3 | O=C1CCC2CCCCC2O1 (centres unmarked) [3,4,4a,5,6,7,8,8a-octahydrochromen-2-one] |  |  | 0 | 0 | 2.0 | 2.0 | 
4 | CC(C)(C)C1CCCCC1 [4-tert-butyl cyclohexane] |  |  | 0 | 0.3 | 2.0 | 2.0 | 
5 | CCC(=O)OC1CC2C3C=CCC3C1C2(C)C (centres unmarked) [8,8-dimethyl-3a,4,5,6,7,7a-hexahydro-1H-4,7-methanoinden-6-yl propionate] | 1.5 | 2.2 |  |  |  |  | 
6 | CCCCCCCCCCCCCCCC(=O)OC [Material 109] |  |  |  |  | 2.0 |  | 
7 | CCCCCCCCCCCCO [Material 174] |  |  |  | 0.5 |  | 2.3 | 
8 | CC(=O)OCCCCCCC(C)C [Material 204] |  |  | 0 | 0 | 2.0 | 2.7 | 
9 | CC1(C)CCc2ccc(CCC=O)cc21 [Material 261] |  |  | 0 | 1.3 | 1.8 | 1.3 | 
10 | CC(=O)OC1CC2CC1C1CC=CC21 (centres unmarked) [Material 281] |  |  | 0 | 0.5 | 2.0 | 2.0 | 
11 | CCCCCCCCCCCC(=O)OCC [Material 391] |  |  |  | 0.3 |  | 2.2 | 
12 | C=CC(C)=CCC=C(C)C [Material 524] |  |  |  | 0 |  | 2.8 | 
13 | CCC(O)COC1CCCCC1C(C)(C)C (centres unmarked) [Material 677] |  |  | 0 | 1.8 | 2.3 | 2.0 | 
14 | CC(CCO)CCc1ccccc1 (centres unmarked) [Material 962] |  |  | 0 | 0.5 | 2.3 | 1.7 | 
15 | CCOC(=O)OC1C(C)CCC(C)C1C (centres unmarked) [Material 1005] |  |  |  | 0.5 |  | 2.6 | 
16 | COC(=O)OC1CC/C=C\CCC1 (centres unmarked) [Material 1139] |  |  | 0 | 1.0 | 2.0 | 2.7 | 
17 | C=C1CCC2OC2(C)CCC2C1CC2(C)C (centres unmarked) [Material 1148] |  |  |  | 0.5 |  | 2.3 | 
18 | CC1(C)C2CCC3(C2)C1C(=O)CCC3(C)C (centres unmarked) [Material 1149] |  |  | 0 | 0.8 | 1.5 | 2.3 | 
19 | CCCCCCCCCCCO [Undecanol] |  |  |  | 0.8 |  | 2.3 | 
20 | CC(C)CC(=O)O [isovaleric acid, reference compound] |  |  |  |  |  |  | 1.0
